The text below walks through data of US4100117A, “Somatostatin analogs and intermediates thereto” (Eli Lilly and Company, priority 1977, dated 1978).

Where a SMILES comes first, the peptide text is derived from it. Bridges are numbered along the chain shown (N, C = ends). [ ]: non-standard residue; d: D form. Some results are limits rather than exact numbers.

Test [1] relates to gastric HCl secretion induced by the C-terminal tetrapeptide of gastrin. Briefly: in vivo inhibition of gastric acid secretion in dogs with chronic fistula and Heidenhain pouch. Also on record: species or system dog. As for the experimental part: D-Val^1 -somatostatin was tested in dogs for its in vivo inhibition of gastric acid secretion. In six dogs with chronic fistula and Heidenhain pouch, gastric HCl secretion was induced by infusion of the C-terminal tetrapeptide of gastrin at 0.5 μg/kg-hr. Each dog served as its own control, receiving on a separate day only the tetrapeptide. On another day, the six dogs received the tetrapeptide, and, after one hour of steady state secretion of HCl, D-Val^1 -somatostatin was infused at 0.75 μg/kg-hr. for one hour. Collection of gastric acid samples was continued for an additional 1.5 hours at 15 minute intervals. The samples were titrated to pH 7 with an automatic titrator. The maximal inhibitory effect of the D-Val^1 -somatostatin was extrapolated against the dose-response curve of somatostatin, and the relative potency of the analog to that of somatostatin is expressed as percent activity. D-Val^1 -somatostatin inhibited steady state acid secretion induced by the C-terminal tetrapeptide of gastrin by 85.1 ± 6.0% standard error of mean. This effect is equivalent to that of 0.935 μg/kg-hr. of somatostatin. Its activity relative to that of somatostatin thus is 125%.

Test [2] has as its system gut motility (pylorus, duodenum, antrum pressure). The experiment in a line: action on gut motility in conscious dogs (intralumenal pressure). The settings on record: three conscious dogs; intravenous infusion over ten minutes. It counts as in vivo, dog. The procedure:
D-Val^1 -somatostatin also was tested for its action on gut motility in conscious dogs. Three dogs having intralumenal catheters placed in the antrum, duodenum, and pylorus were used. Pressure changes in the gut lumen were recorded on a Visicorder using strain gauges and miniature light beam galvanometers. After a steady state control was established, D-Val^1 -somatostatin was infused intravenously over a ten minute period. […] The minimum effective dose required to increase the pyloric pressure and to decrease the duodenum and antrum pressures was <0.125 μg./kg.-10 minutes. This compares to an activity for somatostatin itself of 0.125 to 0.25 μg./kg.-10 minutes.

Test [3] has as its system secretion from the pancreas induced by secretin and cholecystokinin. The experiment in a line: inhibition of pancreatic secretion in dogs with pancreatic and total gastric fistula. Format: in vivo, dog. As to conditions: three dogs; 0.75 μg/kg-hr. for one hour. The procedure:
In three dogs having both pancreatic and total gastric fistula, secretion from the pancreas was induced by infusion of secretin at 2 units/kg-hr. and cholecystokinin at 0.45 unit/kg-hr., and secretion of gastric HCl by infusion of tetragastrin at 0.5 μg/kg-hr. After a steady response was established, each dog received D-Val^1 -somatostatin for one hour at 0.75 μg/kg-hr. The peak inhibitory effect expressed as percent change over control for total protein was -51%

For another test, the system named is growth hormone secretion. Briefly: inhibition of pentobarbital-stimulated growth hormone release in rats. Format: in vivo, rat. The settings on record: serum GH 20 minutes after dosing. As for the experimental part: D-Val^1 -somatostatin also was tested for its activity with respect to the release of growth hormone. The procedure which was employed is carried out using normal male SpragueDawley rats weighing 100-120 grams (Laboratory Supply Company, Indianapolis, Indiana). The test is a modification of the method of P. Brazeau, W. Vale, and R. Guilleman, Endocrinology, 94 184 (1974). In this assay, five groups of eight rats each were employed. Sodium pentobarbital was administered intraperitoneally to all of the rats to stimulate growth hormone secretion. One group served as the control and received only saline. Two of the groups received somatostatin, one at 2 μg./rat, subcutaneously, and the other at 50 μg./rat, subcutaneously. The other two groups received D-Val^1 -somatostatin, one at 2 μg./rat, subcutaneously, and the other at 50 μg./rat, subcutaneously. The serum concentration of growth hormone was measured 20 minutes after simultaneous administration of sodium pentobarbital and test compound. The degree of inhibition of serum growth hormone concentration then was determined with respect to the control group, and the relative activities of D-Val^1 -somatostatin and somatostatin itself were compared.

`CC(C)[C@@H](N)C(=O)NCC(=O)N[C@H]1CSSC[C@@H](C(=O)O)NC(=O)[C@H](CO)NC(=O)[C@H]([C@@H](C)O)NC(=O)[C@H](Cc2ccccc2)NC(=O)[C@H]([C@@H](C)O)NC(=O)[C@H](CCCCN)NC(=O)[C@H](Cc2c[nH]c3ccccc23)NC(=O)[C@H](Cc2ccccc2)NC(=O)[C@H](Cc2ccccc2)NC(=O)[C@H](CC(N)=O)NC(=O)[C@H](CCCCN)NC1=O` [D-Val^1 -somatostatin] (H-[dV]GCKNFFWKTFTSC-OH; disulfide 3-14): the “equivalent dose of somatostatin giving the same effect” value in test [1] (extrapolated against the dose-response curve of somatostatin, analog at 0.75 μg/kg-hr.) is 0.935 μg/kg-hr. Also, in test [1] (gastric acid secretion, dogs), the “activity relative to that of somatostatin” value is recorded as 125%. The “inhibition of steady state acid secretion induced by the C-terminal tetrapeptide of gastrin” value in test [1] (six dogs, infused at 0.75 μg/kg-hr. for one hour, maximal inhibitory effect, ± standard error of mean) turned out to be 85.1 ± 6.0%. Moreover, the “effect on intralumenal pressure” value in test [2] is “initially increased the intralumenal pressure in the pylorus and then decreased it whereas the pressure in the duodenum and the antrum remained depressed throughout the test”. Besides, the “minimum effective dose required to increase the pyloric pressure and to decrease the duodenum and antrum pressures” value in test [2] is recorded as below 0.125 μg./kg.-10 minutes. The “peak inhibitory effect expressed as percent change over control for total protein” value in test [3] was -51%. Further, the “inhibition of the increase in growth hormone secretion over control” value came to 2% in the test on growth hormone secretion (2 μg./rat subcutaneously) and 73% in the test on growth hormone secretion (50 μg./rat subcutaneously).
